{"source": "patent US10562869B2", "about": "“Oxadiazole compounds” (REMYND NV, priority 2014, dated 2020)"}
{"test_system": "M17_3SYN cells", "test": "Paraquat-induced cytotoxicity (LDH) in α-synuclein over-expressing M17_3SYN neuroblastoma cells", "assay_type": "cell-based, human", "settings": "Homo sapiens, Neuroblastoma cell, 48 h, toxicity inhibition (LDH) in M17_3SYN cells challenged with 6 mM paraquat, 2 days; read-out: SYN EC50", "source_text": "A α-synuclein expression plasmid was constructed by subcloning the NcoI/XhoI fragment from 212T-SYN(WT) (Griffioen et al., Biochem Biophys Acta (2006) 1762(3):312-318) containing the cDNA of human wild type α-synuclein correspondingly into a standard mammalian expression vector pcDNA3.1 resulting in plasmid pcDNA3.1-SYNwt. Plasmids pcDNA3.1 and pcDNA3.1-SYNwt were transfected into human neuroblastoma cells (BE-M17; ATCC No. CRL-2267™) using lipofectamine reagent and subsequently, independent clonal cell lines with the plasmids stably integrated into the genome were selected by antibiotic resistance selection (Geneticin (G418)), resulting in cell lines M17.pcDNA3 and M17_3SYN. Overexpression of α-synuclein in the M17_3SYN cell line was confirmed by Western blot analysis.\nDue to the high levels of α-synuclein, M17_3SYN cells were sensitive to paraquat, a well-known risk factor Parkinson's disease and of synuclein-dependent neuronal degeneration. Cytotoxicity of cells was measured by quantification of lactate dehydrogenase (LDH) levels. In dead cells, LDH leaked out of the cells into the medium due to a loss of plasma-membrane integrity.\n[…], primary pre-cultures of M17.pcDNA3 (as possible control) and M17_3SYN cells were prepared, starting from a stock culture, at a density of 20.000-40.000 cells/cm2 in culture medium (Opti-MEM® Reduced Serum Medium with Phenol Red (Invitrogen, Cat. 31985-047) supplemented with 10% FCS, 1 mM sodium pyruvate, 1×NEAA, 500 μg/ml G418 and 0.5×antibiotic/antimycotic (ABAM)). 3 days later these primary pre-cultures were used as a starting point to make secondary pre-cultures at a density of 50.000-100.000 cells/cm^2. At the day of the experiment these secondary precultures were diluted to ˜0.5·10^6 cells/ml in detection medium (Opti-MEM® Reduced-Serum Medium without Phenol Red (Invitrogen, Cat. 11085-021) supplemented with 10% FCS, 1 mM sodium pyruvate, 1×NEAA, 500 μg/ml G418 and 0.5×ABAM) and 60 μL of this suspension was dispensed per well into a 96-well microtiter plate. After 3 hours of incubation at 37° C./5% CO2 an equal volume of detection medium containing a final concentration of 6 mM Paraquat was added and subsequently incubated for 2 days at 37° C./5% CO2. Then LDH activity was determined using the Promega Cytotox 96 Non-Radioactive cytotoxicity assay (Promega, Cat. G1780), according to the manufacturer's instructions. Cytotoxicity was defined as the ratio of LDH relative to the total LDH in the cells and supernatant.\nThe assay described above using the M17_3SYN cell line allowed screening compounds for their ability to decrease cytotoxicity in PQ-challenged cells. Compounds of the invention were tested for their ability to decrease toxicity at different concentrations, ranging from low non-effective concentrations to high effective concentrations. Afterwards, a dose-dependent inhibition curve was used to calculate the EC50. A compound was considered to be active in this test when it inhibited toxicity by more than 20% relative to untreated M17_3SYN cells at a concentration of 10 μM or lower.", "units": {"EC50": "nM"}}
{"compound": "COc1ccc(S(=O)(=O)N2CCN(c3nc(C(F)(F)c4ccccc4)no3)CC2)cc1", "note": "[Cmpd156, 1-[3-(Difluoro-phenyl-methyl)-[1,2,4]oxadiazol-5-yl]-4-(4-methoxy-benzenesulfonyl)-piperazine]", "EC50": 5}
{"compound": "CSc1ccc(S(=O)(=O)N2CCN(c3nc(CC4CC4)no3)CC2)cc1", "note": "[Cmpd161, 3-(Cyclopropylmethyl)-5-(4-((4-(methylthio)phenyl)sulfonyl)piperazin-1-yl)-1,2,4-oxadiazole]", "EC50": 23}
{"compound": "CC[C@@H](c1ccccc1)c1noc(N2CCN(S(=O)(=O)c3ccc(OC)cc3)CC2)n1", "note": "[Cmpd050, 1-(4-Methoxy-benzenesulfonyl)-4-[3-((S)-1-phenyl-propyl)-[1,2,4]oxadiazol-5-yl]-piperazine]", "EC50": 68}
{"compound": "CCOc1ccc(S(=O)(=O)N2CCN(c3nc(C(CC)c4ccccc4)no3)CC2)cc1", "note": "(stereo not drawn) [Cmpd045, 1-(4-Ethoxy-benzenesulfonyl)-4-[3-(1-phenyl-propyl)-[1,2,4]oxadiazol-5-yl]-piperazine]", "EC50": 18}
{"compound": "COc1ccc(S(=O)(=O)N2CCN(c3nc(C(C)(C)c4ccccc4)no3)CC2)cc1", "note": "[Cmpd197, 1-(4-Methoxy-benzenesulfonyl)-4-[3-(1-methyl-1-phenyl-ethyl)-[1,2,4]oxadiazol-5-yl]-piperazine]", "EC50": 2}
{"compound": "O=S(=O)(c1ccc(OC(F)F)cc1)N1CCN(c2nc(C3(c4ccc(Cl)cc4)CC3)no2)CC1", "note": "[Cmpd140, 1-{3-[1-(4-Chloro-phenyl)-cyclopropyl]-[1,2,4]oxadiazol-5-yl}-4-(4-difluoromethoxy-benzenesulfonyl)-piperazine]", "EC50": 44}
{"compound": "CCOc1ccc(S(=O)(=O)N2CCN(c3nc(C(F)(F)c4ccc(Cl)cc4)no3)CC2)cc1", "note": "[Cmpd143, 1-{3-[(4-Chloro-phenyl)-difluoro-methyl]-[1,2,4]oxadiazol-5-yl}-4-(4-ethoxy-benzenesulfonyl)-piperazine]", "EC50": 25}
{"compound": "CCC(c1ccccc1)c1noc(N2CCN(S(=O)(=O)c3ccc(OC(F)F)cc3)CC2)n1", "note": "(stereo not drawn) [Cmpd046, 1-(4-Difluoromethoxy-benzenesulfonyl)-4-[3-(1-phenyl-propyl)-[1,2,4]oxadiazol-5-yl]-piperazine]", "EC50": 59}
{"compound": "CCOc1ccc(S(=O)(=O)N2CCN(c3nc(C(C)(C)c4ccc(F)cc4)no3)CC2)cc1", "note": "[Cmpd115, 1-(4-Ethoxy-benzenesulfonyl)-4-{3-[1-(4-fluoro-phenyl)-1-methyl-ethyl]-[1,2,4]oxadiazol-5-yl}-piperazine]", "EC50": 54}
{"test_system": "M17_3TAU(P301L) cells", "test": "Retinoic acid-induced cytotoxicity (LDH) in TAU-P301L expressing M17_3TAU(P301L) neuroblastoma cells", "assay_type": "cell-based", "settings": "Homo sapiens, Neuroblastoma cell, 168 h; toxicity inhibition (LDH) in M17_3TAU(P301L) cells challenged with retinoic acid, 7 days", "source_text": "A TAU expression plasmid was constructed by sub-cloning the cDNA encoding for human TAU-P301L protein, wherein proline at position 301 was substituted by a leucine residue, into mammalian expression vector pcDNA3.1 resulting in the plasmid pcDNA3.1-TAUP301L. Plasmid pcDNA3.1-TAU P301L was transfected into human neuroblastoma cells (BE-M17; ATCC No. CRL-2267™) using lipofectamine reagent and subsequently, independent clonal cell lines with the plasmids stably integrated into the genome were selected by antibiotic resistance selection (Geneticin (G418)), resulting in cell line M17_3TAUP301L. Expression of the TAUP301L gene in the M17_3TAUP301L cells was confirmed by Western blot analysis.\nM17_3TAU(P301L) cells were treated chronically with retinoic acid (RA) in low serum conditions to induce Alzheimer's disease-like intracellular signaling deregulation leading to increased TAU levels and subsequent cell death. Cytotoxicity of cells was measured by quantification of lactate dehydrogenase (LDH) levels. In dead cells LDH leaked out of the cells into the medium due to a loss of plasma-membrane integrity.\n3 days preceding the experiment, a pre-culture of M17_3TAU(P301L) cells was prepared, starting from a stock culture, at a density of 50.000-100.000 cells/cm^2 in culture medium (Optimem Reduced Serum with phenol red (Invitrogen, Cat. 31985-047)) supplemented with 10% fetal calf serum (FCS), 1 mM sodium pyruvate, 1×non-essential amino acids (NEAA), 500 μg/ml G418 and 0.5×(ABAM). At the day of the experiment these precultures were diluted to ˜0.1·10^6 cells/ml in detection medium (Optimem Reduced Serum without phenol red (Gibco, Cat.11058-021) supplemented with 1% fetal calf serum (FCS), 1 mM sodium pyruvate, 1×non-essential amino acids (NEAA), 500 μg/ml G418 and 0.5×ABAM) and 60 μL of this suspension was dispensed per well into a 96-well microtiter plate. After 3 hours of incubation at 37° C./5% CO2 an equal volume of detection medium (without FCS) containing 3.75 μM RA was added and subsequently incubated for 7 days at 37° C./5% CO2. Then LDH activity was determined using the Promega Cytotox 96 Non-Radioactive cytotoxicity assay (Cat. G1780), according to the manufacturer's instructions. Cytotoxicity was defined as the ratio of LDH relative the total LDH in the cells and supernatant.\nThe assay described above using the M17_3TAU(P301L) cell line allowed to screen compounds for their ability to decrease cytotoxicity in RA-challenged cells. Compounds of the invention were tested for their ability to decrease toxicity at different concentrations, ranging from low non-effective concentrations to high potent concentrations. Afterwards, the dose-dependent inhibition curve was used to calculate their EC50. A compound was considered to be active in this test when it inhibited toxicity by more than 20% relative to untreated M17_3TAU(P301L) cells at a concentration of 10 μM or lower.", "units": {"EC50": "nM"}}
{"compound": "CCC(c1ccccc1)c1noc(N2CCN(Cc3ccc4c(c3)OCO4)CC2)n1", "note": "(stereo not drawn) [Cmpd047, 5-(4-(Benzo[d][1,3]dioxol-5-ylmethyl)piperazin-1-yl)-3-(1-phenylpropyl)-1,2,4-oxadiazole]", "EC50": 63}
{"compound": "Cc1ccccc1CN1CCN(c2nc(Cc3ccccc3)no2)CC1", "note": "[Cmpd041, 1-(3-Benzyl-[1,2,4]oxadiazol-5-yl)-4-(2-methylbenzyl)-piperazine]", "EC50": 55}
{"compound": "Clc1ccc(Cc2noc(N3CCN(Cc4ccc5c(c4)OCO5)CC3)n2)cc1", "note": "[Cmpd055, 1-Benzo[1,3]dioxol-5-ylmethyl-4-[3-(4-chloro-benzyl)-[1,2,4]oxadiazol-5-yl]-piperazine]", "EC50": 452}
{"compound": "Cc1ccc(CN2CCN(c3nc(C4(c5ccccc5)CC4)no3)CC2)cc1", "note": "[Cmpd130, 5-(4-(4-Methylbenzyl)piperazin-1-yl)-3-(1-phenylcyclopropyl)-1,2,4-oxadiazole]", "EC50": 185}
{"compound": "COc1cc(CCN2CCN(c3nc(CCC(F)(F)F)no3)CC2)ccn1", "note": "[Cmpd175, 5-(4-(2-(2-Methoxypyridin-4-yl)ethyl)piperazin-1-yl)-3-(3,3,3-trifluoropropyl)-1,2,4-oxadiazole]", "EC50": 105}
{"compound": "Fc1ccc(-c2noc(N3CCN(Cc4ccccc4Cl)CC3)n2)cc1F", "note": "[Cmpd035, 5-(4-(2-Chlorobenzyl)piperazin-1-yl)-3-(3,4-difluorophenyl)-1,2,4-oxadiazole]", "EC50": 24}
{"compound": "CC(C)CCN1CCN(c2nc(-c3cccc(F)c3)no2)CC1", "note": "[Cmpd034, 3-(3-Fluorophenyl)-5-(4-isopentylpiperazin-1-yl)-1,2,4-oxadiazole]", "EC50": 2}
{"compound": "Clc1ccc(Cc2noc(N3CCN(CC4CCOCC4)CC3)n2)cc1", "note": "[Cmpd069, 3-(4-Chlorobenzyl)-5-(4-((tetrahydro-2H-pyran-4-yl)methyl)piperazin-1-yl)-1,2,4-oxadiazole]", "EC50": 161}
{"compound": "Clc1ccccc1CN1CCN(c2nc(C3C[C@@H]4CC[C@H]3C4)no2)CC1", "note": "(stereo partly drawn) [Cmpd184, 3-((1S,4R)-bicyclo[2.2.1]heptan-2-yl)-5-(4-(2-chlorobenzyl)piperazin-1-yl)-1,2,4-oxadiazole]", "EC50": 135}
{"compound": "Cc1ccc(CN2CCN(c3nc(-c4cccc(F)c4)no3)CC2)cc1", "note": "[Cmpd030, 3-(3-Fluorophenyl)-5-(4-(4-methylbenzyl)piperazin-1-yl)-1,2,4-oxadiazole]", "EC50": 13}
{"compound": "Cc1ccc(-c2noc(N3CCN(Cc4ccccc4C)CC3)n2)cc1", "note": "[Cmpd010, 5-(4-(2-Methylbenzyl)piperazin-1-yl)-3-(p-tolyl)-1,2,4-oxadiazole]", "EC50": 306}
{"compound": "CC(C)CCN1CCN(c2nc(C3(c4ccccc4)CC3)no2)CC1", "note": "[Cmpd133, 5-(4-Isopentylpiperazin-1-yl)-3-(1-phenylcyclopropyl)-1,2,4-oxadiazole]", "EC50": 30}
{"compound": "Cc1ccc(CN2CCN(c3nc(C4C[C@@H]5CC[C@H]4C5)no3)CC2)cc1", "note": "(stereo partly drawn) [Cmpd185, 3-((1S,4R)-bicyclo[2.2.1]heptan-2-yl)-5-(4-(4-methylbenzyl)piperazin-1-yl)-1,2,4-oxadiazole]", "EC50": 71}
{"compound": "Cc1ccc(-c2noc(N3CCN(Cc4ccc(Cl)cc4)CC3)n2)cc1", "note": "[Cmpd008, 5-(4-(4-Chlorobenzyl)piperazin-1-yl)-3-(p-tolyl)-1,2,4-oxadiazole]", "EC50": 182}
{"compound": "c1ccc(-c2noc(N3CCN(CCN4CCOCC4)CC3)n2)cc1", "note": "[Cmpd005, 4-(2-(4-(3-Pphenyl-1,2,4-oxadiazol-5-yl)piperazin-1-yl)ethyl)morpholine]", "EC50": 41}
